One data set has as its system Sarcocystis neurona. The settings on record: EPM in equines; sulfadiazine as the sulfonamide given with pyrimethamine. The method, then:
The amounts of each component are based on a liquid suspension having a total volume of about 1 liter. As mentioned above, a useful dosage, e.g., for a 1,000 pound horse infected with Sarcocystis neurona (as evidenced by the presence of the protozoan in a sample from the subject's cerebrospinal fluid) is about 30 mL of the suspension, once a day, given on an empty stomach in the morning.

Data set [1] concerns Plasmodium berghei yoelii. The settings on record: rodent malaria; cited from earlier work.
For data set [2] the following is noted: horses, oral, 1 mg pyrimethamine/kg once a day for 10 days; cited from earlier work.

The values that follow come from patent US6448252B1, “Treatment of equine protozoal myeloencephalitis” (IDEXX Pharmaceuticals, Inc., priority 1996, dated 2002).

With `Nc1ccc(S(=O)(=O)Nc2ncccn2)cc1` [sulfadiazine], in the data set on Sarcocystis neurona, the rate of efficacy is recorded as > 70%. Further, the causal prophylactic activity result in data set [1] is “causal prophylactic activity”.
Regarding `COc1cc(NC(C)CCCN)c2ncccc2c1` (stereo not shown) [Primaquine diphosphate], the causal prophylactic activity result in data set [1] is reported as “causal prophylactic activity”.
Turning to `CCc1nc(N)nc(N)c1-c1ccc(Cl)cc1` [pyrimethamine], in data set [2], the toxicological problem entry is recorded as “does not present a serious toxicological problem”.
